PMC6053381, “Novel 2-phenyloxypyrimidine derivative induces apoptosis and autophagy via inhibiting PI3K pathway and activating MAPK/ERK signaling in hepatocellular carcinoma cells” (Scientific Reports, 2018)

Key:
PDGFRα = PDGFRα (Homo sapiens, UniProt P16234); assay: PDGFR kinase assay, Caliper microfluidic mobility shift; type: biochemical; conditions: compound at 1 µM; averages of two separate experiments
Experimental: (§1) In vitro inhibitory activities of all compounds at 1 μM against PDGFRα and PDGFRβ were evaluated using Caliper microfluidic mobility shift technology. […] At the same concentration, only E5 inhibited greater than 50% of PDGFRβ activity (Fig. 2B).
(§2) PDGFR kinase activity was measured using Caliper microfluidic mobility shift technology. Briefly, 2 μL compound solution (25 μM) in 25% DMSO per well were added into the 384 well microtiter plates. Then, 10 μL per well of enzyme solution (100 mM HEPES, 10 mM MgCl2, Brij35 (30%) 100 μL, 1 mM DTT, 20 ng enzyme) was added. After a brief centrifugation at 1,000 rpm, the kinase reactions were started by addition of 38 μL per well of peptide/ATP-solution (40 μM ATP, 6.5 μM peptide 5′-FAM-KKKKEEIYFFF-NH2, Tris-HCl buffer, pH 7.0) incubated at 30 °C for 60 min and stopped by the addition of 20 μL 35 mM EDTA per well. The electrophoretic separation of the phosphorylated and non-phosphorylated peptides was then carried out on LabChip EZ Reader II (Caliper Life Sciences). All other kinase reactions were carried out as previously reported using the Kinase-Glo Plus or ADP-Glo assay. Kinase inhibition rates were calculated per manufacturer’s instructions.

PDGFRβ = PDGFRβ (Homo sapiens, UniProt P09619); assay: as above; type: biochemical; conditions: compound at 1 µM; averages of two separate experiments
PDGFRβ, sequence (P09619 33-1106): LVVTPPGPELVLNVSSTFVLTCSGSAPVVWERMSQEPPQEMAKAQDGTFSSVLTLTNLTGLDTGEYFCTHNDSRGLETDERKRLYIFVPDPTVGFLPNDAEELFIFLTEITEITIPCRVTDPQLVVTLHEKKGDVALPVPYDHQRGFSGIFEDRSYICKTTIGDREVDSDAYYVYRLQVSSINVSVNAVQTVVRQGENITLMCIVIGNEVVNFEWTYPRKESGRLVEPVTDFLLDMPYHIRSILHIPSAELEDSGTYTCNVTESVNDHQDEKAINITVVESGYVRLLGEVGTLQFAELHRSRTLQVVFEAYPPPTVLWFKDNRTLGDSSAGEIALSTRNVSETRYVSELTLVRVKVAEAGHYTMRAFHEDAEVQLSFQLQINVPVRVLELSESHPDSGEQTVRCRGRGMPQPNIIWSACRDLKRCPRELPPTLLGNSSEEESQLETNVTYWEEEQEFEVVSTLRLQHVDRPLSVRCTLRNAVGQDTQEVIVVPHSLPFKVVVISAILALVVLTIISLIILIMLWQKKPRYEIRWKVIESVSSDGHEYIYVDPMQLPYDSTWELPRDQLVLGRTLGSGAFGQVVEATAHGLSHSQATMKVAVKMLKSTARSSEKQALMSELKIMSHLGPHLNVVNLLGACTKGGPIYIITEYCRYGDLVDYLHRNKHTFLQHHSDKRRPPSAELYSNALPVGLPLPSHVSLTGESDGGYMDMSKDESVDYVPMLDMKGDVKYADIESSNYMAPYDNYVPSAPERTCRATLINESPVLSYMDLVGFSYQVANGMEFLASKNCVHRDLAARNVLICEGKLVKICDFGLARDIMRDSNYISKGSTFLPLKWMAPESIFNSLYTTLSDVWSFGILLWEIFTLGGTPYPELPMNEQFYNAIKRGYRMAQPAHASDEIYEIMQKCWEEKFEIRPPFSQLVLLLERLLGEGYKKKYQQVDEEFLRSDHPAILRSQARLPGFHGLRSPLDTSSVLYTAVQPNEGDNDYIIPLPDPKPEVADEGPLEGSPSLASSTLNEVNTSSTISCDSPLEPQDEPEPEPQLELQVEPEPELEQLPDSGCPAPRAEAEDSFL
Experimental: as §1, §2

BEL7404 = assay: CellTiter-Glo luminescent cell viability assay; type: cell-based; conditions: 120 h incubation, read-out: Anti-proliferative activity IC50 BEL7404
From the text: (§3) The in vitro antitumor activity of all compounds was screened against six HCC cell lines by CellTiter-Glo luminescent cell viability assay as described earlier. […] After a comprehensive assessment of PDGFR inhibition, cellular activity against HCC cells as well as potential druggability, E5 was chosen to investigate its kinase profiling, antitumor activity and molecular mechanism in the following study. […]
(§4) authenticated by using short tandem repeat (STR) matching analysis. No mycoplasma contamination was detected.
(§5) CellTiter-Glo luminescent cell viability assay
(§6) For experiments hepatocellular carcinoma cells were seeded at 4000 cells per well in 96-well plates. After overnight incubation, solution of compounds in DMSO at various concentrations were added to the cells and further incubated for 120 h. Cell viability was measured with the CellTiter-Glo Luminescent Cell Viability Assay (Promega) according to the manufacturer’s instructions. Luminescence was measured using an EnVision Multilabel Plate Reader (Perkin-Elmer). The cytotoxicity of the compounds was expressed as the percent age of luminescence relative to that of untreated cells . The concentration of compound producing 50% of cell proliferation (IC50) was calculated by nonlinear regression analysis of the response-concentration (log) curve, using the Graph-Pad Prism program package (Graph Pad Software; San Diego, CA). Results are expressed as the means of two […] experiments

Hep3B = assay: CellTiter-Glo luminescent cell viability assay; type: cell-based; conditions: 120 h incubation, read-out: Anti-proliferative activity IC50 Hep3B
From the text: as §3, §4, §5, §6

MHCC97-L = assay: CellTiter-Glo luminescent cell viability assay; type: cell-based; conditions: 120 h incubation, read-out: Anti-proliferative activity IC50 MHCC97-L
From the text: as §3, §4, §5, §6

QGY-7703 = assay: CellTiter-Glo luminescent cell viability assay; type: cell-based; conditions: 120 h incubation, read-out: Anti-proliferative activity IC50 QGY-7703
From the text: as §3, §4, §5, §6

SMMC-7721 = assay: CellTiter-Glo luminescent cell viability assay; type: cell-based; conditions: 120 h incubation, read-out: Anti-proliferative activity IC50 SMMC-7721
From the text: as §3, §4, §5, §6

SNU368 = assay: CellTiter-Glo luminescent cell viability assay; type: cell-based; conditions: 120 h incubation, read-out: Anti-proliferative activity IC50 SNU368
From the text: as §3, §4, §5, §6

PDGFRα, sequence (P16234 24-1089): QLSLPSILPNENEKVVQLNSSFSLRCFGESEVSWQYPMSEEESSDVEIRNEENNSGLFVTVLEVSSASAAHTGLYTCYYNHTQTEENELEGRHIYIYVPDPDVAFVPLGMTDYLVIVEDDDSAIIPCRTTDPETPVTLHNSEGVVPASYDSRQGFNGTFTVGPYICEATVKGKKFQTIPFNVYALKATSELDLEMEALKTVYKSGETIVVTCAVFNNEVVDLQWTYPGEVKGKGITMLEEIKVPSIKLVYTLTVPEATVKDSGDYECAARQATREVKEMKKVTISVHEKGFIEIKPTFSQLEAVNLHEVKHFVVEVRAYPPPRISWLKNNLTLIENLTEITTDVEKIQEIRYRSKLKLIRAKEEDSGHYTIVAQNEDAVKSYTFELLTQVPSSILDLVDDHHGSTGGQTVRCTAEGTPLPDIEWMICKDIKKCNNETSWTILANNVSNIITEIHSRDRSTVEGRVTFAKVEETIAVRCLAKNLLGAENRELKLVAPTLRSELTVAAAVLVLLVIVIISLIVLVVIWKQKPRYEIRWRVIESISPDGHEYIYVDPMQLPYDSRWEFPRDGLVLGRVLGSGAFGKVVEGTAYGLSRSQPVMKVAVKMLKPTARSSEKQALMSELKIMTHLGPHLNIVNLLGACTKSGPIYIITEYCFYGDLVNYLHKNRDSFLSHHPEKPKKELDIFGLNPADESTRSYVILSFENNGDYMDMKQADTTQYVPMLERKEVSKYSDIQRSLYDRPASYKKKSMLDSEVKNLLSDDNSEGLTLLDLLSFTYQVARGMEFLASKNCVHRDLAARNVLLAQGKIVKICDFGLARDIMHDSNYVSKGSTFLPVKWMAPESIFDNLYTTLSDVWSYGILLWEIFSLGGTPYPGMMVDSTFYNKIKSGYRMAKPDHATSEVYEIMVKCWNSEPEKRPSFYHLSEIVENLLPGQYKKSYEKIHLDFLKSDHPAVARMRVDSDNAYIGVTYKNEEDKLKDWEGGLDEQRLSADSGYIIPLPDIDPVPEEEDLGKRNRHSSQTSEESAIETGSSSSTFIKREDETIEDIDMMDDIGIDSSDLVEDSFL

Row | SMILES | Inhibition effect (%) PDGFRα (PDGFRα) | Inhibition effect (%) PDGFRβ (PDGFRβ) | IC50 (BEL7404) | IC50 (Hep3B) | IC50 (SMMC-7721) | IC50 (SNU368) | IC50 (MHCC97-L) | IC50 (QGY-7703)
1 | Cc1ccc(NC(=O)c2ccc(F)cc2)cc1Oc1nccc(-c2cccnc2)n1 [A10] | 40.63% | 30.94% | 28.2 µM | 20.1 µM | 21.1 µM | 38.7 µM | 35.7 µM | 43.4 µM
2 | Cc1cccc(C(=O)Nc2ccc(C)c(Oc3nccc(-c4cccnc4)n3)c2)c1 [A4] | – | 43.74% | 12.2 µM | 17.5 µM | 17.5 µM | 54 µM | 24.5 µM | 39.8 µM
3 | COc1ccc(C(=O)Nc2ccc(C)c(Oc3nccc(-c4cccnc4)n3)c2)cc1 [A5] | 45.20% | 33.70% | 15.6 µM | 23.3 µM | 23.5 µM | 49.5 µM | 31.3 µM | 40.5 µM
4 | Cc1ccc(NC(=O)c2ccncc2)cc1Oc1nccc(-c2cccnc2)n1 [A12] | 43.17% | 31.94% | 134 µM | 130 µM | 113 µM | 287 µM | 281 µM | 170 µM
5 | Cc1ccc(NC(=O)c2ccc(Cl)cc2)cc1Oc1nccc(-c2cccnc2)n1 [A6] | 47.73% | 35.96% | 9.5 µM | 10.7 µM | 12.3 µM | 24 µM | 16.2 µM | 21.9 µM
6 | Cc1ccc(NC(=O)c2cccc(Cl)c2)cc1Oc1nccc(-c2cccnc2)n1 [A7] | – | 40.23% | 32.8 µM | 18.9 µM | 27.2 µM | 45.9 µM | 51.5 µM | 57.8 µM
7 | Cc1ccc(NC(=O)c2ccc([N+](=O)[O-])cc2)cc1Oc1nccc(-c2cccnc2)n1 [A8] | – | 43.24% | 20.1 µM | 14.3 µM | 10.1 µM | 25.7 µM | 34.6 µM | 24.6 µM
8 | Cc1ccc(NC(=O)Cc2ccccc2)cc1Oc1nccc(-c2cccnc2)n1 [A2] | – | 40.73% | 39.3 µM | 39.5 µM | 84.3 µM | 112 µM | > 200 µM | 59.8 µM

The next lines start with results.

Row | Inhibition effect (%) PDGFRα (PDGFRα) | Inhibition effect (%) PDGFRβ (PDGFRβ) | IC50 (BEL7404) | IC50 (Hep3B) | IC50 (SMMC-7721) | IC50 (SNU368) | SMILES | IC50 (MHCC97-L) | IC50 (QGY-7703)
9 | 23.12% | 26.17% | 3.7 µM | 4.6 µM | 6 µM | 12.8 µM | Cc1ccc(C(=O)Nc2ccc(C)c(Oc3nccc(-c4ccccc4)n3)c2)cc1 [B3] | 6.1 µM | 7.3 µM
10 | 25.66% | 20.65% | 13.4 µM | 17.7 µM | 8.8 µM | 18 µM | Cc1ccc(NC(=O)c2ccncc2)cc1Oc1nccc(-c2ccccc2)n1 [B12] | 44 µM | 27.6 µM
11 | 26.17% | 37.71% | 9.9 µM | 9 µM | 7.5 µM | 12 µM | Cc1ccc(NC(=O)c2ccc([N+](=O)[O-])cc2)cc1Oc1nccc(-c2ccccc2)n1 [B8] | 14 µM | 14.4 µM
12 | 45.70% | 46.00% | 4.5 µM | 6 µM | 3.7 µM | 23.2 µM | Cc1cccc(C(=O)Nc2ccc(C)c(Oc3nccc(-c4ccco4)n3)c2)c1 [D4] | 3.4 µM | 7.5 µM
13 | 24.14% | 25.67% | 15.6 µM | 41.8 µM | 18.4 µM | 26.5 µM | Cc1ccc(NC(=O)c2ccco2)cc1Oc1nccc(-c2cc3ccccc3n2C)n1 [F3] | > 200 µM | 97.7 µM
14 | 19.06% | 10.10% | 8.2 µM | 74.6 µM | 0.2 µM | 13.2 µM | CCC(=O)Nc1ccc(C)c(Oc2nccc(-c3cc4ccccc4o3)n2)c1 [E2] | 5.5 µM | 0.4 µM
15 | 26.16% | 14.62% | 2.8 µM | 3.8 µM | 2.5 µM | 6.3 µM | Cc1ccc(NC(=O)CO)cc1Oc1nccc(-c2cc3ccccc3o2)n1 [E8] | 13.6 µM | 3.3 µM
16 | 27.18% | 7.35% | 5.2 µM | 15.8 µM | 0.4 µM | 11.4 µM | Cc1ccc(NC(=O)c2ccoc2)cc1Oc1nccc(-c2cc3ccccc3o2)n1 [E4] | – | –
17 | 12.21% | -4.46% | 19 µM | 33.8 µM | 27.9 µM | 29.1 µM | CCC(=O)Nc1ccc(C)c(Oc2nccc(-c3cc4ccccc4n3C)n2)c1 [F2] | 31.8 µM | 51.9 µM
18 | 32.00% | 5.08% | 21.6 µM | 44.2 µM | 20.2 µM | 18 µM | Cc1ccc(NC(=O)c2cccnc2)cc1Oc1nccc(-c2ccccc2)n1 [B11] | 53.5 µM | 81.1 µM
19 | 6.37% | 2.32% | 37.1 µM | 31 µM | 34.5 µM | 29.3 µM | CC(=O)Nc1ccc(C)c(Oc2nccc(-c3cc4ccccc4n3C)n2)c1 [F1] | 48.4 µM | 195 µM
20 | 33.02% | 37.47% | 10.9 µM | 7.3 µM | 8.2 µM | 12.7 µM | Cc1ccc(NC(=O)c2ccc(Cl)cc2)cc1Oc1nccc(-c2ccco2)n1 [D6] | 24.6 µM | 25.8 µM
21 | 33.78% | 2.07% | 48.2 µM | 36.3 µM | 29.5 µM | 55.9 µM | CCC(=O)Nc1ccc(C)c(Oc2nccc(-c3cccc4ccccc34)n2)c1 [C2] | 111 µM | 120 µM
22 | -2.00% | 3.83% | 1.2 µM | 125 µM | 0.7 µM | 1.3 µM | Cc1ccc(NC(=O)c2ccco2)cc1Oc1nccc(-c2cc3ccccc3o2)n1 [E3] | 9.6 µM | 0.7 µM
23 | -1.24% | -0.44% | 38.1 µM | 11.7 µM | 27.7 µM | 31.6 µM | Cc1ccc(NC(=O)CN2CCN(C)CC2)cc1Oc1nccc(-c2cc3ccccc3o2)n1 [E6] | 16.7 µM | 29.5 µM
24 | 1.56% | 1.82% | 10.1 µM | 86.8 µM | 0.3 µM | 8.5 µM | CC(=O)Nc1ccc(C)c(Oc2nccc(-c3cc4ccccc4o3)n2)c1 [E1] | 5.7 µM | 0.3 µM
